The values that follow are results of earlier work, collected in patent US12545694B2, “Cannabidiol derivatives, preparation method thereof and use thereof” (CHENGDU BAIYU PHARMACEUTICAL CO., LTD., priority 2020, dated 2026).

For the data set the following is noted: human.

For the compound `C=C(C)[C@@H]1CCC(C)=C[C@H]1c1c(O)cc(CCCCC)cc1O` [CBD, cannabidiol], the oral bioavailability entry is given as “about 6%”.
